Laboratory results from patent publication US10774082B2, “Quinazoline compound” (Astellas Pharma Inc., priority 2017, dated 2020).
Read-outs that look alike come from different tables or passages of the source.

Tests used:
[1] = tested on: ERK phosphorylation (Thr 202/Tyr 204) in NCI-H1373 cells; experiment: ERK phosphorylation inhibitory action in NCI-H1373 (Cell ELISA); format: cell-based, Human; conditions: read-out: IC50 (ERK phosphorylation inhibition)
Method in brief: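 KRAS G12C NCI-H1373 cells (2×10^4/well) were treated with compound (six points, 1,000–0.3 nM final) for 2 h. Phospho-ERK Thr202/Tyr204 was measured by in-cell ELISA with an IRDye 800CW secondary antibody. IC50 was fitted by sigmoid-Emax regression against DMSO (0%) and 1 μM trametinib (100%).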

[2] = tested on: pERK in NCI-H1373 tumor; experiment: Intratumoral pERK inhibitory action in NCI-H1373 tumor of nude mice (TR-FRET); format: in vivo, mouse; conditions: for pERK inhibition (%) / inhibition at 10 mg/kg: 10 mg/kg; for inhibition at 3 mg/kg: read-out: pERK inhibition (%)
Procedure: Evaluation of Intratumoral pERK Inhibitory Action
The phosphorylation amount of ERK in tumor sample after administration of test compound was examined by using pERK measurement kit (Advanced ERK phospho-T202/Y204 kit, Cisbio co., Ltd) through a TR-FRET method.
2.0 to 5.0×10^6 NCI-H1373 cells were prepared by using a solution in which an equivalent amount of Matrigel (Becton. Dickinson and Company) was added to PBS, were injected subcutaneously in a volume of 100 μL and planted to male nude mice of 4-5 weeks old (CAnN.Cg-Foxn 1 nu/CrlCrlj (nu/nu), Charles River Laboratories Japan, Inc.), and then the male nude mice were used for the test 15 to 26 days later. The test was conducted with three mice in a solvent group and three mice in a test compound administration group, and the test compounds were prepared by using a solvent such that the dosage thereof is as indicated in Table 4. The test compound was administered subcutaneously or orally. For subcutaneous administration, physiological saline supplemented with equimolar hydrochloric acid was used as a solvent. For oral administration, 6% 2-hydroxypropyl-β-cyclodextrin (Sigma-Aldrich Co. LLC) was used as a solvent. Six hours after the administration, a tumor was excised from a cervical dislocated mouse under isoflurane anesthesia, and a part thereof was put into a 2 mL Eppendorf tube and frozen using liquid nitrogen. The tumor sample was stored in a deep freezer at −80° C. until it was subjected to the pERK measurement test.
500 μL of lysis buffer 1 (Phospholysis buffer [Cisbio Co., Ltd], Complete EDTA free [Roche Diagnostics K.K.], Phosphatase inhibitor cocktail 2 [Sigma-Aldrich Co. LLC]) and one bead (5 mm YTZ ball [Nikkato Corp.]) was added to the tumor sample, and crushed (frequency 25/s for 3 minutes) by using Tissue Lyser II (QIAGEN GmbH). The whole amount was transferred to a new tube and centrifuged (20,400×g for 10 minutes, 4° C.) by using a micro amount high speed cooling centrifuge so as to obtain a tumor lysate which is a supernatant. Protein quantification of tumor lysate was performed by using a protein quantification kit (Pierce 660 nm Protein Assay Kit [Thermo Fisher Scientific Inc.]), and each sample was diluted by using lysis buffer 2 (Phosphorysis buffer [Cisbio Co., Ltd], Blocking Agent [attached to pERK measurement kit]) such that the amount thereof is to be a final concentration of 0.5 μg/μL.
Each of p-ERK1/2 Cryptate antibody and p-ERK1/2 d2 antibody (attached to pERK measurement kit) was diluted 20-fold with each detection buffer (attached to pERK measurement kit), and thereby a mixed solution of these two types of antibodies was prepared. A mixed solution of antibody was added to a 384 well plate at a volume of 4 μL/well. Further, tumor lysate diluted to 0.5 μg/μL was added at a volume of 16 μL/well. After standing at room temperature in a wet box for about 17 hours, the fluorescence intensity at 620 nm and 665 nm was measured under the condition of excitation wavelength of 337 nm by using EnVision 2103 Multilabel Reader (PerkinElmer Co., Ltd.).

[3] = NCI-H1373 cells, cultured for 2 hours, 100% = 1 μM Trametinib
[4] = Oral administration, tumor six hours after administration
[5] = Homo sapiens, NCI-H1373, 2 h, NCI-H1373 cells, cultured for 2 hours, 100% = 1 μM Trametinib
[6] = Mus musculus, NCI-H1373, po, 6 h, Oral administration, tumor six hours after administration
[7] = Mus musculus, NCI-H1373, sc, 6 h, Subcutaneous administration, tumor six hours after administration
[8] = Mus musculus, NCI-H1373, sc, 6 h

| SMILES | IC50 [1, 5] | inhibition at 10 mg/kg [2, 6] | further results |
| --- | --- | --- | --- |
| C=CC(=O)N1CC2(CCN(c3nc(OC4CCN(CCOC)CC4)nc4c(OCC(F)(F)F)c(-c5c(C)ccc6[nH]ncc56)c(C5CC5)cc34)CC2)C1 [Example 35] |  |  | IC50 [1, 3]: 2.5 nM; pERK inhibition (%) [2, 4]: 68% |
| C=CC(=O)N1CC2(CCN(c3nc(OC4CCN(C5CCOCC5)CC4)nc4c(OCC(F)(F)F)c(-c5c(C)ccc6[nH]ncc56)c(C=C)cc34)CC2)C1 (single isomer, unassigned) [Ex 39] | 3 nM | 43% |  |
| C=CC(=O)N1CCN(c2nc(OC3CCN(C)CC3)nc3c(F)c(-c4c(C)ccc5[nH]ncc45)c(Cl)cc23)CC1 [Compound C, reference compound] | 210 nM |  | inhibition at 30 mg/kg ([2]; Mus musculus, NCI-H1373, sc, 6 h, Subcutaneous administration, 30 mg/kg, tumor six hours after administration): 54% |
| C=CC(=O)N1CC2(CCN(c3nc(OC4CCN(C5CCOCC5)CC4)nc4c(OCC(F)(F)F)c(-c5c(C)ccc6[nH]ncc56)c(C=C)cc34)CC2)C1 [Ex 30] | 3.1 nM | 56% |  |
| C=CC(=O)N1CC2(CCN(c3nc(OC4CCN(Cc5ccccn5)CC4)nc4c(OCC(F)(F)F)c(-c5c(C)ccc6[nH]ncc56)c(C=C)cc34)CC2)C1 [Example 56] | 7.7 nM | 53% |  |
| C=CC(=O)N1CC2(CCN(c3nc(N4CC(N(C)C)C4)nc4c(OCC(F)(F)F)c(-c5c(C)ccc6[nH]ncc56)c(C=C)cc34)CC2)C1 [Example 65] | 9.3 nM | 68% |  |
| C=CC(=O)N1CC2(CCN(c3nc(OC4CCN(C5COC5)CC4)nc4c(OCC)c(-c5c(C)ccc6[nH]ncc56)c(C5CC5)cc34)CC2)C1 [Example 34] | 5.8 nM | 54% |  |
| C=CC(=O)N1CC2(CCN(c3nc(OC4CCN(C)CC4F)nc4c(OCC(F)(F)F)c(-c5c(C)ccc6[nH]ncc56)c(C=C)cc34)CC2)C1 (stereo not drawn) [Example 52] | 6.7 nM | 68% |  |
| C=CC(=O)N1CC2(CCN(c3nc(OC[C@@H]4CCCN4C)nc4c(OC5CCC5)c(-c5c(C)ccc6[nH]ncc56)c(C=C)cc34)CC2)C1 [Example 15] |  |  | IC50 ([1]; Homo sapiens, NCI-H1373, 2 h): 11 nM; inhibition at 3 mg/kg [2, 8]: 53% |
| C=CC(=O)N1CC2(CCN(c3nc(OC4CCN(CCOCC)CC4)nc4c(OCC(F)(F)F)c(-c5c(C)ccc6[nH]ncc56)c(C=C)cc34)CC2)C1 [Example 37] |  |  | IC50 [1, 3]: 2.5 nM; pERK inhibition (%) [2, 4]: 63% |
| C=CC(=O)N1CC2(CCN(c3nc(OC4CCN(C5COC5)CC4)nc4c(OCC(F)(F)F)c(-c5c(C)ccc6[nH]ncc56)c(C=C)cc34)CC2)C1 [Example 33] | 4.6 nM | 71% |  |
| C=CC(=O)N1CC2(CCN(c3nc(OC[C@@H]4CCCN4C)nc4c(OCC(F)F)c(-c5c(C)ccc6[nH]ncc56)c(C5CC5)cc34)CC2)C1 [Ex 4] | 2.9 nM |  | inhibition at 1 mg/kg [2, 7]: 58% |
| C=CC(=O)N1CC2(CCN(c3nc(OC[C@@H]4CCCN4C)nc4c(OCC)c(-c5c(C)ccc6[nH]ncc56)c(C=C)cc34)CC2)C1 [Example 16] |  |  | IC50 ([1]; Homo sapiens, NCI-H1373, 2 h): 9.1 nM; inhibition at 3 mg/kg [2, 8]: 51% |
| C=CC(=O)N1CC2(CCN(c3nc(OC4CCN(CC)CC4)nc4c(OCC)c(-c5c(C)ccc6[nH]ncc56)c(C=C)cc34)CC2)C1 [Ex 7] | 8.8 nM |  | inhibition at 3 mg/kg ([2]; Mus musculus, NCI-H1373, sc, 6 h, Subcutaneous administration, 3 mg/kg, tumor six hours after administration): 59% |
| C=CC(=O)N1CC2(CCN(c3nc(N4CCN(C)CC4)nc4c(OCC(F)(F)F)c(-c5c(C)ccc6[nH]ncc56)c(C=C)cc34)CC2)C1 [Example 50] | 6.4 nM | 63% |  |
| C=CC(=O)N1CC2(CCN(c3nc(OC4CCN(C)CC4)nc4c(OCC)c(-c5c(C)ccc6[nH]ncc56)c(C=C)cc34)CC2)C1 [Ex 24] | 3.7 nM |  | inhibition at 40 mg/kg ([2]; Mus musculus, NCI-H1373, po, 6 h, Oral administration, 40 mg/kg, tumor six hours after administration): 72% |
| C=CC(=O)N1CC2(CCN(c3nc(OC4CCN(CC(C)(C)O)CC4)nc4c(OCC(F)(F)F)c(-c5c(C)ccc6[nH]ncc56)c(C=C)cc34)CC2)C1 [Example 40] |  |  | IC50 [1, 3]: 3.1 nM; pERK inhibition (%) [2, 4]: 58% |

Now from value to compound, other results behind:

| IC50 [1, 5] | SMILES | inhibition at 10 mg/kg [2, 6] | further results |
| --- | --- | --- | --- |
| 3.3 nM | C=CC(=O)N1CC2(CCN(c3nc(OC4CCN(CCOC)CC4)nc4c(OCC(F)(F)F)c(-c5c(C)ccc6[nH]ncc56)c(C=C)cc34)CC2)C1 [Ex 26] | 50% |  |
| 3.3 nM | C=CC(=O)N1CC2(CCN(c3nc(OC4CCN(C)CC4)nc4c(OCC(F)F)c(-c5c(C)ccc6[nH]ncc56)c(C5CC5)cc34)CC2)C1 [Ex 3] |  | inhibition at 1 mg/kg [2, 7]: 57% |
| 5.7 nM | C=CC(=O)N1CC2(CCN(c3nc(OC4CCN(CCOC)CC4)nc4c(OCC(F)F)c(-c5c(C)ccc6[nH]ncc56)c(C5CC5)cc34)CC2)C1 [Example 32] | 55% |  |
| 4.2 nM | C=CC(=O)N1CC2(CCN(c3nc(OC4CCN(CCOCC)CC4)nc4c(OCC(F)(F)F)c(-c5c(C)ccc6[nH]ncc56)c(C=C)cc34)CC2)C1 [Example 29] | 62% |  |
| 3.5 nM | C=CC(=O)N1CC2(CCN(c3nc(OC4CCN(CCCOC)CC4)nc4c(OCC(F)(F)F)c(-c5c(C)ccc6[nH]ncc56)c(C5CC5)cc34)CC2)C1 [Ex 28] | 46% |  |
| 4.4 nM | C=CC(=O)N1CC2(CCN(c3nc(OC4CCN(C)CC4)nc4c(OCC)c(-c5c(C)ccc6[nH]ncc56)c(C5CC5)cc34)CC2)C1 [Ex 2] |  | inhibition at 1 mg/kg [2, 7]: 54% |
| 2.5 nM | C=CC(=O)N1CC2(CCN(c3nc(OC4CCN(CCOC)CC4)nc4c(OCC(F)(F)F)c(-c5c(C)ccc6[nH]ncc56)c(C5CC5)cc34)CC2)C1 [Ex 25] | 66% |  |
